According to ChEMBL document CHEMBL5126573, “Scaffold modifications to the 4-(4,4-dimethylpiperidinyl) 2,6-dimethylpyridinyl class of HIV-1 allosteric integrase inhibitors” (Bioorg Med Chem, 2022):

Legend:
[1] = system: Human immunodeficiency virus 1; assay: Antiviral activity against recombinant HIV1 NLRep-Rluc harbouring polymorphic 124N/125A integrase infected in human MT2 cells assessed as inhibition of virus growth in presence of fetal bovine serum by measuring luciferase activity after 5 days by Luciferase Assay; format: functional, organism-based; settings: Human immunodeficiency virus 1, NLRep-Rluc, MT2, 120 h
[2] = system: Human immunodeficiency virus 1; assay: Antiviral activity against recombinant HIV1 NLRep-Rluc harbouring polymorphic 124A/125A integrase infected in human MT2 cells assessed as inhibition of virus growth in presence of fetal bovine serum by measuring luciferase activity after 5 days by Luciferase Assay; format: functional, organism-based; settings: Human immunodeficiency virus 1, NLRep-Rluc, MT2, 120 h
[3] = Cytotoxicity against human MT2 cells infected with HIV1 NLRep-Rluc harbouring polymorphic 124T/125T integrase; format: toxicity, cell-based; settings: MT2 cells infected with HIV-1 NLRep-Rluc
[4] = Metabolic stability in Sprague-Dawley rat assessed as clearance at 1 mg/kg, iv; format: ADME, organism-based; settings: in vivo
[5] = Permeability of the compound at pH 7.4 by PAMPA assay; format: ADME; settings: read-out: permeability
[6] = Metabolic stability in rat liver microsomes assessed as half life; format: ADME, Microsome
[7] = Metabolic stability in human liver microsomes assessed as half life; format: ADME, Microsome
[8] = system: Human immunodeficiency virus 1; assay: Antiviral activity against recombinant HIV1 NLRep-Rluc harbouring polymorphic 124T/125T integrase infected in human MT2 cells assessed as inhibition of virus growth in presence of fetal bovine serum by measuring luciferase activity after 5 days by Luciferase Assay; format: functional, organism-based; settings: Human immunodeficiency virus 1, NLRep-Rluc, MT2, 120 h
[9] = Permeability of the compound at pH 5.5 by PAMPA assay; format: ADME; settings: read-out: permeability
[10] = Oral bioavailability in Sprague-Dawley rat at 5 mg/kg; format: ADME, organism-based; settings: in vivo
[11] = AUC (0 to infinity) in Sprague-Dawley rat at 5 mg/kg, po; format: ADME, organism-based; set-up: time infinity, dose 5 mg/kg, route po; settings: in vivo
[12] = Toxicity in rat H4-II-E cells assessed as fold change in lipid droplet formation at 10 uM incubated for 72 hrs boron-dipyrromethene staining based by high content screening (HCS) fluorescence analysis relative to control; format: cell-based
[13] = Toxicity in human Huh-7 cells assessed as fold change in lipid droplet formation at 10 uM incubated for 72 hrs boron-dipyrromethene staining based by high content screening (HCS) fluorescence analysis relative to control; format: cell-based; settings: huh-7, 72 h

| Compound | EC50 [1] | EC50 [2] | CC50 [3] | clearance [4] | Papp [5] | half-life [6] | half-life [7] | EC50 [8] | Papp [9] | bioavailability [10] | AUC(0-inf) [11] | fold change (FC) [12] | fold change (FC) [13] |
| --- | --- | --- | --- | --- | --- | --- | --- | --- | --- | --- | --- | --- | --- |
| CCc1cn2c(C)c([C@H](OC(C)(C)C)C(=O)O)c(N3CCC(C)(C)CC3)c(-c3ccc(OCCc4ccc(F)cc4)cc3)c2n1 | 2.4 nM | 1.8 nM | ≥ 10300 nM | 57.3 mL/min/kg | 34.3 ×10⁻⁶ cm/s | > 2 h | > 2 h | 1 nM |  |  |  |  |  |
| Cc1c([C@H](OC(C)(C)C)C(=O)O)c(N2CCC(C)(C)CC2)c(-c2ccc(OCCc3ccc(F)cc3)cc2)c2cnnn12 | 14.8 nM | 11.5 nM | ≥ 18200 nM |  |  |  |  | 5.8 nM |  |  |  |  |  |
| Cc1c([C@H](OC(C)(C)C)C(=O)O)c(N2CCC(C)(C)CC2)c(-c2ccc(OCCc3ccc(F)cc3)cc2)c2cncn12 | 41 nM | 34.1 nM | ≥ 18200 nM |  |  |  |  | 14.6 nM |  |  |  |  |  |
| Cc1c([C@H](OC(C)(C)C)C(=O)O)c(N2CCC(C)(C)CC2)c(-c2ccc(OCCc3ccc(F)cc3)cc2)c2cccn12 | 32.6 nM | 38.2 nM | ≥ 18200 nM |  |  |  |  | 27.7 nM |  |  |  |  |  |
| Cc1c([C@H](OC(C)(C)C)C(=O)O)c(N2CCC(C)(C)CC2)c(-c2ccc(OCCc3ccc(F)cc3)cc2)c2ccnn12 | 26.3 nM | 35.3 nM | ≥ 18200 nM |  |  |  |  | 12.9 nM |  |  |  |  |  |
| Cc1cn2c(C)c([C@H](OC(C)(C)C)C(=O)O)c(N3CCC(C)(C)CC3)c(-c3ccc(OCCc4ccc(F)cc4)cc3)c2n1 | 1.8 nM | 1.6 nM | ≥ 10300 nM | 40.7 mL/min/kg | 43.8 ×10⁻⁶ cm/s |  | > 2 h | 0.8 nM | 38.7 ×10⁻⁶ cm/s | 8% | 0.269 µM·h |  |  |
| Cc1nc2c(C)c(N3CCC(C)(C)CC3)c([C@H](OC(C)(C)C)C(=O)O)c(C)n2n1 | 540 nM | 1210 nM | ≥ 3000 nM |  |  |  |  | 207 nM |  |  |  |  |  |
| Cc1c([C@H](OC(C)(C)C)C(=O)O)c(N2CCC(C)(C)CC2)c(-c2ccc(OCCc3ccc(F)cc3)cc2)c2nccn12 | 1.9 nM | 1.7 nM | ≥ 10300 nM | 12.5 mL/min/kg | 41 ×10⁻⁶ cm/s | > 2 h | > 2 h | 1.1 nM | 49.8 ×10⁻⁶ cm/s | 13% | 1.48 µM·h | 1.9 | 3.3 |
| Cc1c([C@H](OC(C)(C)C)C(=O)O)c(N2CCC(C)(C)CC2)c(-c2ccc(OCCc3ccc(F)cc3)cc2)c2nc(C(C)C)cn12 | 3.1 nM | 2.9 nM | ≥ 10300 nM |  |  |  |  | 1.2 nM |  |  |  |  |  |
| Cc1c([C@H](OC(C)(C)C)C(=O)O)c(N2CCC(C)(C)CC2)c(-c2ccc3c(c2)CCN(c2ncnc4c2oc2ccccc24)C3)c2nccn12 | 4.6 nM | 4.5 nM | ≥ 3000 nM | 1 mL/min/kg | 66.3 ×10⁻⁶ cm/s |  |  | 2.9 nM |  | 9% | 12.1 µM·h |  |  |
| Cc1c([C@H](OC(C)(C)C)C(=O)O)c(N2CCC(C)(C)CC2)c(-c2ccc3c(c2)CCN(c2ncnc4c2oc2ccccc24)C3)c2cnnn12 | 6.4 nM | 4 nM | ≥ 3000 nM | 1.9 mL/min/kg | 79 ×10⁻⁶ cm/s |  |  | 3.8 nM |  | 33% | 21.7 µM·h | 1.3 | 2.7 |
| Cc1c([C@H](OC(C)(C)C)C(=O)O)c(N2CCC(C)(C)CC2)c(-c2ccc3c(c2)CCN(c2ncnc4c2oc2ccccc24)C3)c2ncnn12 | 5.1 nM | 5 nM | ≥ 3000 nM | 1.5 mL/min/kg | 47.4 ×10⁻⁶ cm/s |  |  | 2.9 nM |  | 37% | 30.7 µM·h |  |  |
| Cc1nc(C)c([C@H](OC(C)(C)C)C(=O)O)c(N2CCC(C)(C)CC2)c1-c1ccc(OCCc2ccc(F)cc2)cc1 |  |  | ≥ 18200 nM |  |  | > 2 h | > 2 h |  |  |  | 14 µM·h | 4 | 3.7 |
| Cc1c([C@H](OC(C)(C)C)C(=O)O)c(N2CCC(C)(C)CC2)c(-c2ccc(OCCc3ccc(F)cc3)cc2)c2nc(C3CC3)cn12 | 11.1 nM | 10.7 nM | ≥ 10300 nM |  |  |  |  | 4.2 nM |  |  |  |  |  |
| Cc1nc2c(-c3ccc4c(c3)CCN(Cc3c(C)cccc3Cl)C4)c(N3CCC(C)(C)CC3)c([C@H](OC(C)(C)C)C(=O)O)c(C)n2n1 | 9 nM | 10.1 nM | ≥ 3000 nM | 13 mL/min/kg | 48.3 ×10⁻⁶ cm/s |  |  | 6 nM | 35.2 ×10⁻⁶ cm/s | 34% | 3.21 µM·h |  |  |
| Cc1nc2c(-c3ccc(OCCc4ccc(F)cc4)cc3)c(N3CCC(C)(C)CC3)c([C@H](OC(C)(C)C)C(=O)O)c(C)n2n1 | 2.7 nM | 2.2 nM | ≥ 40000 nM | 20.1 mL/min/kg |  | > 2 h | > 2 h | 1.3 nM |  | 39% | 2.71 µM·h |  |  |
| Cc1c([C@H](OC(C)(C)C)C(=O)O)c(N2CCC(C)(C)CC2)c(-c2ccc(OCCc3ccc(F)cc3)cc2)c2nc(C(F)(F)F)cn12 | 12.4 nM | 10.4 nM | ≥ 10300 nM |  |  |  |  | 5.2 nM |  |  |  |  |  |
| Cc1nc2c(-c3ccc4c(c3)CCN(c3ncnc5c3oc3ccccc35)C4)c(N3CCC(C)(C)CC3)c([C@H](OC(C)(C)C)C(=O)O)c(C)n2n1 | 4.5 nM | 5.2 nM | ≥ 3000 nM | 2.8 mL/min/kg | 75.2 ×10⁻⁶ cm/s |  |  | 3.9 nM | 101 ×10⁻⁶ cm/s | 83% | 36.3 µM·h | 3.6 | 3.9 |
| Cc1c([C@H](OC(C)(C)C)C(=O)O)c(N2CCC(C)(C)CC2)c(-c2ccc(OCCc3ccc(F)cc3)cc2)c2ncnn12 | 4 nM | 4.6 nM | ≥ 18200 nM | 11.9 mL/min/kg | 65.4 ×10⁻⁶ cm/s | > 2 h | > 2 h | 2.4 nM | 160 ×10⁻⁶ cm/s | 28% | 3.59 µM·h | 1.6 | 2.7 |
| Cc1c([C@H](OC(C)(C)C)C(=O)O)c(N2CCC(C)(C)CC2)c(-c2ccc(OCCc3ccc(F)cc3)cc2)c2nc(CC(C)C)cn12 | 2.6 nM | 3.5 nM | ≥ 10300 nM | 44.6 mL/min/kg |  | > 2 h | > 2 h | 1.2 nM |  |  |  |  |  |
| Cc1c([C@H](OC(C)(C)C)C(=O)O)c(N2CCC(C)(C)CC2)c(-c2ccc(OCCc3ccc(F)cc3)cc2)c2nncn12 | 13.7 nM | 15.8 nM | ≥ 18200 nM |  |  |  |  | 11.9 nM |  |  |  |  |  |
